For assay [1], the target named is T1, 5-HT3AB receptor, 5-HT3B subunit I183A (Homo sapiens, UniProt O95264+P46098, I176A).
T1 sequence (P46098 24-478): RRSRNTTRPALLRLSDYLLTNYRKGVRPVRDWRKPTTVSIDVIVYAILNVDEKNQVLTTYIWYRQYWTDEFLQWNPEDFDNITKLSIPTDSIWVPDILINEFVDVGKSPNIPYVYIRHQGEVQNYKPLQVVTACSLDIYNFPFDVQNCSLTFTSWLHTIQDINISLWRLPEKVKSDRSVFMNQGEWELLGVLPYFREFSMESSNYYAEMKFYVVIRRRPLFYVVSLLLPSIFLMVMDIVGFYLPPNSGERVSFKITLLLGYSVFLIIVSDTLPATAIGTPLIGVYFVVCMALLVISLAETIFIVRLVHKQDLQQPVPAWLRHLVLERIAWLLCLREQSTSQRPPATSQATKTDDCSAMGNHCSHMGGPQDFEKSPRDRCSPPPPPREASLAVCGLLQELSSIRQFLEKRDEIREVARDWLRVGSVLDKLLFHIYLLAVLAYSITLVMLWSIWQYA
T1 sequence (O95264 22-441 I176A): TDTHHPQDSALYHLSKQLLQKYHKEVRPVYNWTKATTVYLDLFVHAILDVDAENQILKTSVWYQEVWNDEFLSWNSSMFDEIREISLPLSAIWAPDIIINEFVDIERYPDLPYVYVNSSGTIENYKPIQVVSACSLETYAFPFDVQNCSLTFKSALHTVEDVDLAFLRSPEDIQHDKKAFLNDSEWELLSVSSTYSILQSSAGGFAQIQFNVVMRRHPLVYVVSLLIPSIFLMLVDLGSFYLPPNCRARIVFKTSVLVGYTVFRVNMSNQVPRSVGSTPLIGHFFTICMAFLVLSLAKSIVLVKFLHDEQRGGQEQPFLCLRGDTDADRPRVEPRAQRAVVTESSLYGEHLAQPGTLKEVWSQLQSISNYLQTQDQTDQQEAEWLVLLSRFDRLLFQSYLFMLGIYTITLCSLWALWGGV
The experiment in a line: FlexStation membrane potential dye functional assay, HEK293 cells. The settings on record: 5-HT concentration-response, 5-HT3AB with 5-HT3B I183A.
Experimental: (§1) For FlexStation assays, transfected cells were plated on 96-well plates and incubated 1–2 days before assay.
(§2) Fluorometric studies were undertaken using a FlexStation® (Molecular Devices, Sunnyvale, CA, USA) as previously described.[11]
(§3) Fluorescence was measured every 2 s for 200 s. […] Concentration–response and inhibition curves were obtained for each mutant, and the fluorescence values were normalized to the maximal response.

Assay [2] addresses T2, 5-HT3A receptor S163T (Homo sapiens, UniProt P46098, S158T).
T2 sequence (P46098 24-478 S158T): T1 sequence (P46098 24-478) with S135T
The description is as above. It counts as cell-based. Set-up: expressed in transfected cells; host or cells: HEK293. The settings on record: inhibition of 5-HT (EC50 concentration) response, 45 min preincubation, 5-HT3A S163T.
Experimental: as §1, §2, §3

In another assay the target is T3, 5-HT3A receptor D165A (Homo sapiens, UniProt P46098, D160A).
T3 sequence (P46098 24-478 D160A): T1 sequence (P46098 24-478) with D137A
The experiment in a line: radioligand saturation binding, transfected HEK293 membranes. The settings on record: [3H]-palonosetron saturation, 5-HT3A D165A, 4 °C, 24 h.

For assay [3], the target named is T2, 5-HT3A receptor S163T. The assay is described as above. The settings on record: [3H]-palonosetron saturation, 5-HT3A S163T, 4 °C, 24 h.
Experimental: (§4) Human embryonic kidney (HEK) 293 cells were cultured on 90 mm tissue culture plates at 37 °C and 7% CO2 in a humidified atmosphere. They were grown in DMEM:F12 (Dulbecco’s Modified Eagle’s Medium/Nutrient Mix F12 (1:1)) with GlutaMAX I™ containing 10% fetal calf serum and passaged when confluent. For radioligand binding studies, cells in 90 mm dishes were transfected at 60–70% confluency using polyethyleneimine and incubated for 3–4 days before use. For FlexStation assays, transfected cells were plated on 96-well plates and incubated 1–2 days before assay. […]
(§5) Eight-point binding assays were performed to produce saturation binding curves. […] Radioactive counts were measured using a Beckman LS6000SC liquid scintillation counter (Fullerton, California, USA).
(§6) Data were analyzed by iterative curve fitting using GraphPad Prism v5 (San Diego, CA) according to the following equation: B=Bmax[L]^n/kdn+[L]^n where B is the amount of bound radioligand, Bmax is the maximum specific binding at equilibrium, [L] is the concentration of radioligand, Kd is the equilibrium dissociation constant of the radioligand, and n is the Hill coefficient.
Another assay has as its target T4, 5-HT3A receptor F130Y (Homo sapiens, UniProt P46098, F125Y).
T4 sequence (P46098 24-478 F125Y): T1 sequence (P46098 24-478) with F102Y
Described as above. The settings on record: [3H]-palonosetron saturation, 5-HT3A F130Y, 4 °C, 24 h.

Positions count from the first letter of the chain named.

Experimental for 5-HT3A receptor D165A: as §4, §5, §6
Experimental for 5-HT3A receptor F130Y: as §4, §5, §6

As to `NCCc1c[nH]c2ccc(O)cc12` [5-HT, serotonin], the “Hill Coefficient” value in assay [1] turned out to be 1.2 ± 0.2.
In general, IC50 refers to the concentration that inhibits the measured activity by half. High values mean weaker potency in that assay, low ones greater potency in that assay. As a reminder, the Kd is the constant that tells how readily two partners part at equilibrium. Read a high Kd as weaker binding. In the case of `O=C1c2cccc3c2[C@H](CCC3)CN1[C@@H]1CN2CCC1CC2` [Palonosetron], at 5-HT3A receptor S163T [2], the IC50 is 1.02 ± 0.19 nM. For the same compound, the Kd at 5-HT3A receptor D165A came to 0.3 ± 0.08 nM; at 5-HT3A receptor S163T [3], 0.22 ± 0.05 nM; at 5-HT3A receptor F130Y, 0.26 ± 0.09 nM.

(Values after publication PMC3898987 (Bioorganic & Medicinal Chemistry, 2013).)
